Measured values from US20240390282A1, “DRUG-LOADED LIPOSOMES AND USES THEREOF IN TREATING BIOFILM” (Yeda Research and Development Co. Ltd., priority 2022, published 2024).

Columns and labels:
[1] = cited from earlier work
[2] = tested on: PA14-biofilms; test: Bacterial viability in biofilms by LIVE/DEAD staining; format: cell-based, Pseudomonas aeruginosa; conditions: PA14 biofilm; free SMX 1.5 mg/mL
Method: Determination of bacterial viability in biofilms by LIVE/DEAD™ staining: PA14-biofilms were developed on 8 Well p-Slide (ibidi GmbH, Germany). 150 μL of the inoculum was incubated in a humidified incubator for 24 hours at 37° C. without shaking. After 24 hours, the fully formed biofilm was gently washed twice with PBS. 160 μL of liposomal suspension or BM2G medium was added to each well, and subsequently, the samples were incubated at 37° C. for 4 hours. Each well was then washed with PBS, and a second dose (170 μL) of antibacterial treatment was applied for 4 hours with incubation at 37° C. Subsequently, biofilm was washed with 180 μL of PBS buffer, and bacteria cells were stained using a BacLight™ Bacterial Viability Kit@ (Thermo Fisher Scientific™, USA). Live bacterial cells were stained with SYTO™ 9 dye (ex: 486/em: 501) and dead cells were stained with propidium iodide (PI) dye (λEx: 535/λEm: 617), with dyes mixed in 1:1 ratio. […] Later, wells were washed twice with PBS, and images of biofilm were acquired using confocal fluorescence microscopy. Cell viability quantification was performed using ImageJ software v1.52i (NIH, USA). Confocal pictures were acquired using a confocal laser scanning fluorescence microscope LSM700 (ZEISS, Germany). […] Images were recorded in brightfield mode and in confocal mode using 488 excitation and 561 excitation laser channels. […]

SMILES | LogP [1] | pKa [1] | dead cells (red loci) in words [2]
O=c1oc2c(O)c(O)cc3c(=O)oc4c(O)c(O)cc1c4c23 [Ellagic acid (EA), Ellagic acid] | 1.59-2.32 | 5.8 | 
Cc1cc(NS(=O)(=O)c2ccc(N)cc2)no1 [Sulfamethoxazole (SMX), Sulfamethoxazole] |  |  | significant increase in the number of red loci
